{"source": "patent US20240092773A1", "about": "“DIHYDRO-CYCLOPENTA-ISOQUINOLINE SULFONAMIDES DERIVATIVES” (UCB Biopharma SRL, priority 2019, published 2024)"}
{"molecular_target": "IgE-Tb binding to soluble IgE receptor FcεR1α (Y131A mutation) (Homo sapiens, UniProt P01854, N146Q/N252Q)", "sequence (P01854 whole entry N146Q/N252Q, looked up)": "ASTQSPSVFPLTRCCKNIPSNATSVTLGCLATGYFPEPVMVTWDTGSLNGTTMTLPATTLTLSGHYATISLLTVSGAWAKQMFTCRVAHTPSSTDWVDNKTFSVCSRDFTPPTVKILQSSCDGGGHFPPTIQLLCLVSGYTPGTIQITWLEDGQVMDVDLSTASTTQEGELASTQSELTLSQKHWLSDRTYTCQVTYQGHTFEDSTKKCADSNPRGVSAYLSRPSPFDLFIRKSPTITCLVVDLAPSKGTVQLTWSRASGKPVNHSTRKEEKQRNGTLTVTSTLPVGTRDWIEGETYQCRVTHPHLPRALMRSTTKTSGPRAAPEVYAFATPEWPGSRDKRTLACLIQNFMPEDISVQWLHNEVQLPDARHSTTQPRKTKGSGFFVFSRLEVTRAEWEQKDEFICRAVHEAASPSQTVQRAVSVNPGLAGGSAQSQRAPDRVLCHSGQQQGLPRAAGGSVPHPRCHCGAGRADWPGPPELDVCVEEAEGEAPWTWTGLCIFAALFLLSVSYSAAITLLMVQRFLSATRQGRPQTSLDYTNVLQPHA", "assay": "In vitro FRET assay: inhibition of binding of IgE-Tb to receptor FcεR1α-Y131A-AF488", "details": "read-out: FRET IC50 range", "units": {"IC50": "nM"}}
{"smiles": "CC(C)(F)CNS(=O)(=O)c1cc2c(c3cnc(C4CC4)cc13)CCC2n1nnnc1N", "note": "(centres unmarked) [Example 39, 7-(5-aminotetrazol-1-yl)-3-cyclopropyl-N-(2-fluoro-2-methylpropyl)-8,9-dihydro-7H-cyclopenta[h]isoquinoline-5-sulfonamide]", "IC50": "100 to 2000"}
{"smiles": "Cn1nnc(-c2ccc(NC3CCc4c3cc(S(=O)(=O)NCC(C)(C)F)c3cc(C5CC5)ncc43)cn2)n1", "note": "(centres unmarked) [Example 40, 3-cyclopropyl-N-(2-fluoro-2-methylpropyl)-7-[[6-(2-methyltetrazol-5-yl)pyridin-3-yl]amino]-8,9-dihydro-7H-cyclopenta[h]isoquinoline-5-sulfonamide]", "IC50": "1 to 10"}
{"smiles": "Cn1ncc2c(NC3CCc4c3cc(S(=O)(=O)NCC(C)(C)F)c3cc(C5CC5)ncc43)cncc21", "note": "(centres unmarked) [Example 41, 3-cyclopropyl-N-(2-fluoro-2-methylpropyl)-7-[(1-methylpyrazolo[3,4-c]pyridin-4-yl)amino]-8,9-dihydro-7H-cyclopenta[h]isoquinoline-5-sulfonamide]", "IC50": "10 to 50"}
{"smiles": "Cc1nnc(-c2ccc(NC3CCc4c3cc(S(=O)(=O)NCC(C)(C)F)c3cc(C5CC5)ncc43)cn2)o1", "note": "(centres unmarked) [Example 42, 3-cyclopropyl-N-(2-fluoro-2-methylpropyl)-7-[[6-(5-methyl-1,3,4-oxadiazol-2-yl)pyridin-3-yl]amino]-8,9-dihydro-7H-cyclopenta[h]isoquinoline-5-sulfonamide]", "IC50": "1 to 10"}
{"smiles": "Cn1ncc2c(NC3CCc4cc(S(=O)(=O)NCC(C)(C)F)c5cc(C6CC6)ncc5c43)cncc21", "note": "(centres unmarked) [Example 43, 3-cyclopropyl-N-(2-fluoro-2-methylpropyl)-9-[(1-methylpyrazolo[3,4-c]pyridin-4-yl)amino]-8,9-dihydro-7H-cyclopenta[h]isoquinoline-5-sulfonamide]", "IC50": "100 to 2000"}
{"smiles": "CC(C)CNS(=O)(=O)c1cc2c(c3cnc(C4CC4)cc13)C(NC(=O)OCc1ccccc1)CC2", "note": "(centres unmarked) [Example 44, benzyl N-[3-cyclopropyl-5-(2-methylpropylsulfamoyl)-8,9-dihydro-7H-cyclopenta[h]isoquinolin-9-yl]carbamate]", "IC50": "100 to 2000"}
{"smiles": "CC(C)CNS(=O)(=O)c1cc2c(c3cnc(C4CC4)cc13)C(NC(=O)Nc1ccc(Br)cc1)CC2", "note": "(centres unmarked) [Example 45, 1-(4-bromophenyl)-3-[3-cyclopropyl-5-(2-methylpropylsulfamoyl)-8,9-dihydro-7H-cyclopenta[h]isoquinolin-9-yl]urea]", "IC50": "100 to 2000"}
{"smiles": "Cc1cc(CNC(=O)NC2CCc3cc(S(=O)(=O)NCC(C)C)c4cc(C5CC5)ncc4c32)n(C)n1", "note": "(centres unmarked) [Example 46, 1-[3-cyclopropyl-5-(2-methylpropylsulfamoyl)-8,9-dihydro-7H-cyclopenta[h]isoquinolin-9-yl]-3-[(2,5-dimethylpyrazol-3-yl)methyl]urea]", "IC50": "100 to 2000"}
{"smiles": "CC(C)CNS(=O)(=O)c1cc2c(c3cnc(C4CC4)cc13)CCC2O", "note": "(centres unmarked) [Example 47, 3-cyclopropyl-7-hydroxy-N-(2-methylpropyl)-8,9-dihydro-7H-cyclopenta[h]isoquinoline-5-sulfonamide]", "IC50": "100 to 2000"}
{"smiles": "CC(C)CNS(=O)(=O)c1cc2c(c3cnc(C4CC4)cc13)CCC2=O", "note": "[Example 48, 3-cyclopropyl-N-(2-methylpropyl)-7-oxo-8,9-dihydrocyclopenta[h]isoquinoline-5-sulfonamide]", "IC50": "100 to 2000"}
{"smiles": "CC(C)CNS(=O)(=O)c1cc2c(c3cnc(C4CC4)cc13)CCC2(C)O", "note": "(centres unmarked) [Example 49, 3-cyclopropyl-7-hydroxy-7-methyl-N-(2-methylpropyl)-8,9-dihydrocyclopenta[h]isoquinoline-5-sulfonamide]", "IC50": "100 to 2000"}
{"smiles": "CC(C)CNS(=O)(=O)c1cc2c(c3cnc(C4CC4)cc13)CCC2N", "note": "(centres unmarked) [Example 50, 7-amino-3-cyclopropyl-N-(2-methylpropyl)-8,9-dihydro-7H-cyclopenta[h]isoquinoline-5-sulfonamide]", "IC50": "100 to 2000"}
{"smiles": "CCNC(=S)NC1CCc2c1cc(S(=O)(=O)NCC(C)C)c1cc(C3CC3)ncc21", "note": "(centres unmarked) [Example 51, 1-[3-cyclopropyl-5-(2-methylpropylsulfamoyl)-8,9-dihydro-7H-cyclopenta[h]isoquinolin-7-yl]-3-ethylthiourea]", "IC50": "100 to 2000"}
{"smiles": "CCNC1=NS(=O)(=O)N=C1NC1CCc2c1cc(S(=O)(=O)NCC(C)C)c1cc(C3CC3)ncc21", "note": "(centres unmarked) [Example 54, 3-cyclopropyl-7-[[4-(ethylamino)-1,1-dioxo-1,2,5-thiadiazol-3-yl]amino]-N-(2-methylpropyl)-8,9-dihydro-7H-cyclopenta[h]isoquinoline-5-sulfonamide]", "IC50": "100 to 2000"}
{"smiles": "Cc1ccc(NC(=NC#N)NC2CCc3c2cc(S(=O)(=O)NCC(C)C)c2cc(C4CC4)ncc32)cc1", "note": "(centres unmarked) [Example 55, 2-cyano-1-[3-cyclopropyl-5-(2-methylpropylsulfamoyl)-8,9-dihydro-7H-cyclopenta[h]isoquinolin-7-yl]-3-(4-methylphenyl)guanidine]", "IC50": "100 to 2000"}
{"smiles": "CC(C)(F)CNS(=O)(=O)c1cc2c(c3cnc(C4CC4)cc13)CCC2N1CCC[C@@H](N)C1", "note": "(stereo partly drawn) [Example 57, 7-[(3R)-3-aminopiperidin-1-yl]-3-cyclopropyl-N-(2-fluoro-2-methylpropyl)-8,9-dihydro-7H-cyclopenta[h]isoquinoline-5-sulfonamide]", "IC50": "100 to 2000"}
{"smiles": "Cc1cc(C(=O)NC2CN(C3CCc4c3cc(S(=O)(=O)NCC(C)(C)F)c3cc(C5CC5)ncc43)C2)n(C)n1", "note": "(centres unmarked) [Example 59, N-[1-[3-cyclopropyl-5-[(2-fluoro-2-methylpropyl)sulfamoyl]-8,9-dihydro-7H-cyclopenta[h]isoquinolin-7-yl]azetidin-3-yl]-2,5-dimethylpyrazole-3-carboxamide]", "IC50": "100 to 2000"}
{"smiles": "CC(C)(F)CNS(=O)(=O)c1cc2c(c3cnc(C4CC4)cc13)CCC2NC1=CC(=O)C1(C)C", "note": "(centres unmarked) [Example 60, 3-cyclopropyl-7-[(4,4-dimethyl-3-oxocyclobuten-1-yl)amino]-N-(2-fluoro-2-methylpropyl)-8,9-dihydro-7H-cyclopenta[h]isoquinoline-5-sulfonamide]", "IC50": "100 to 2000"}
{"smiles": "CC(C)(F)CNS(=O)(=O)c1cc2c(c3cnc(C4CC4)cc13)CCC2NCc1cc2ccccc2[nH]1", "note": "(centres unmarked) [Example 61, 3-cyclopropyl-N-(2-fluoro-2-methylpropyl)-7-(1H-indol-2-ylmethylamino)-8,9-dihydro-7H-cyclopenta[h]isoquinoline-5-sulfonamide]", "IC50": "100 to 2000"}
{"smiles": "CC(C)CNS(=O)(=O)c1cc2c(c3cnc(C4CC4)cc13)C(O)CC2", "note": "(centres unmarked) [Example 62, 3-cyclopropyl-9-hydroxy-N-(2-methylpropyl)-8,9-dihydro-7H-cyclopenta[h]isoquinoline-5-sulfonamide]", "IC50": "100 to 2000"}
{"smiles": "CC(C)CNS(=O)(=O)c1cc2c(c3cnc(C4CC4)cc13)C(=O)CC2", "note": "[Example 63, 3-cyclopropyl-N-(2-methylpropyl)-9-oxo-7,8-dihydrocyclopenta[h]isoquinoline-5-sulfonamide]", "IC50": "100 to 2000"}
{"smiles": "CC(C)CNS(=O)(=O)c1cc2c(c3cnc(C4CC4)cc13)C(C)(O)CC2", "note": "(centres unmarked) [Example 64, 3-cyclopropyl-9-hydroxy-9-methyl-N-(2-methylpropyl)-7,8-dihydrocyclopenta[h]isoquinoline-5-sulfonamide]", "IC50": "100 to 2000"}
{"smiles": "CC(C)CNS(=O)(=O)c1cc2c(c3cnc(C4CC4)cc13)C(F)CC2", "note": "(centres unmarked) [Example 65, 3-cyclopropyl-9-fluoro-N-(2-methylpropyl)-8,9-dihydro-7H-cyclopenta[h]isoquinoline-5-sulfonamide]", "IC50": "100 to 2000"}
{"smiles": "CCNC1=NS(=O)(=O)N=C1NC1CCc2cc(S(=O)(=O)NCC(C)C)c3cc(C4CC4)ncc3c21", "note": "(centres unmarked) [Example 66, 3-cyclopropyl-9-[[4-(ethylamino)-1,1-dioxo-1,2,5-thiadiazol-3-yl]amino]-N-(2-methylpropyl)-8,9-dihydro-7H-cyclopenta[h]isoquinoline-5-sulfonamide]", "IC50": "100 to 2000"}
{"smiles": "Cn1cc(C#N)c(NC2CCc3cc(S(=O)(=O)NCC(C)(C)F)c4cc(C5CC5)ncc4c32)n1", "note": "(centres unmarked) [Example 67, 9-[(4-cyano-1-methylpyrazol-3-yl)amino]-3-cyclopropyl-N-(2-fluoro-2-methylpropyl)-8,9-dihydro-7H-cyclopenta[h]isoquinoline-5-sulfonamide]", "IC50": "100 to 2000"}
{"smiles": "CC(C)(F)CNS(=O)(=O)c1cc2c(c3cnc(C4CC4)cc13)C(Nc1cncc3ccccc13)CC2", "note": "(centres unmarked) [Example 68, 3-cyclopropyl-N-(2-fluoro-2-methylpropyl)-9-(isoquinolin-4-ylamino)-8,9-dihydro-7H-cyclopenta[h]isoquinoline-5-sulfonamide]", "IC50": "100 to 2000"}
{"smiles": "Cc1ccc(N/C(=N\\C#N)NC2CCc3cc(S(=O)(=O)NCC(C)C)c4cc(C5CC5)ncc4c32)cc1", "note": "(centres unmarked) [Example 69, 2-cyano-1-[3-cyclopropyl-5-(2-methylpropylsulfamoyl)-8,9-dihydro-7H-cyclopenta[h]isoquinolin-9-yl]-3-(4-methylphenyl)guanidine]", "IC50": "100 to 2000"}
{"smiles": "CC(C)CNS(=O)(=O)c1cc2c(c3cnc(C4CC4)cc13)C(NS(C)(=O)=O)CC2", "note": "(centres unmarked) [Example 70, 3-cyclopropyl-9-(methanesulfonamido)-N-(2-methylpropyl)-8,9-dihydro-7H-cyclopenta[h]isoquinoline-5-sulfonamide]", "IC50": "100 to 2000"}
{"smiles": "CCNC(=S)NC1CCc2cc(S(=O)(=O)NCC(C)C)c3cc(C4CC4)ncc3c21", "note": "(centres unmarked) [Example 71, 1-[3-cyclopropyl-5-(2-methylpropylsulfamoyl)-8,9-dihydro-7H-cyclopenta[h]isoquinolin-9-yl]-3-ethylthiourea]", "IC50": "100 to 2000"}
{"smiles": "CCNc1nncn1C1CCc2cc(S(=O)(=O)NCC(C)C)c3cc(C4CC4)ncc3c21", "note": "(centres unmarked) [Example 72, 3-cyclopropyl-9-[3-(ethylamino)-1,2,4-triazol-4-yl]-N-(2-methylpropyl)-8,9-dihydro-7H-cyclopenta[h]isoquinoline-5-sulfonamide]", "IC50": "100 to 2000"}
{"smiles": "CC(C)CNS(=O)(=O)c1cc2c(c3cnc(C4CC4)cc13)C(NC(=S)Nc1cccnc1)CC2", "note": "(centres unmarked) [Example 74, 1-[3-cyclopropyl-5-(2-methylpropylsulfamoyl)-8,9-dihydro-7H-cyclopenta[h]isoquinolin-9-yl]-3-pyridin-3-ylthiourea]", "IC50": "100 to 2000"}
{"smiles": "CC(C)CNS(=O)(=O)c1cc2c(c3cnc(C4CC4)cc13)C(Nc1nncn1-c1cccnc1)CC2", "note": "(centres unmarked) [Example 75, 3-cyclopropyl-N-(2-methylpropyl)-9-[(4-pyridin-3-yl-1,2,4-triazol-3-yl]amino]-8,9-dihydro-7H-cyclopenta[h]isoquinoline-5-sulfonamide]", "IC50": "10 to 50"}
